# Source: PubChem BioAssay (NCI)
# Several values for one entry are separate records, joined by “and”; a condition that tells them apart may be missing. Identical values can stand only once.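 Five concentrations, 48 hours, 96-well plates. At the GI50, growth is halved. TGI marks complete inhibition of growth.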
# What was measured:
# Assay in all cases: growth of human tumour cells (NCI), 48 h
# K-562 leukemia = tested on: K-562 leukemia
# OVCAR-5 ovarian = tested on: OVCAR-5 ovarian
# OVCAR-8 ovarian = tested on: OVCAR-8 ovarian
# NCI-H23 lung = tested on: NCI-H23 lung
# SW-620 colon = tested on: SW-620 colon
# COLO 205 colon = tested on: COLO 205 colon
# SF-539 CNS = tested on: SF-539 CNS
# UACC-62 melanoma = tested on: UACC-62 melanoma
# ACHN renal = tested on: ACHN renal
# IGROV1 ovarian = tested on: IGROV1 ovarian
Compound,TGI (K-562 leukemia),TGI (OVCAR-5 ovarian),TGI (OVCAR-8 ovarian),TGI (NCI-H23 lung),TGI (SW-620 colon),TGI (COLO 205 colon),TGI (SF-539 CNS),TGI (UACC-62 melanoma),TGI (ACHN renal),TGI (IGROV1 ovarian),GI50 (OVCAR-5 ovarian),GI50 (OVCAR-8 ovarian),GI50 (NCI-H23 lung),GI50 (SW-620 colon),GI50 (COLO 205 colon),GI50 (SF-539 CNS),GI50 (UACC-62 melanoma),GI50 (ACHN renal),GI50 (IGROV1 ovarian),GI50 (K-562 leukemia)
COc1cc(/C=C2\Cc3ccccc3C2=O)cc(OC)c1OC,> 100 µM,> 100 µM,> 100 µM,> 100 µM,> 100 µM,> 100 µM,> 100 µM,> 100 µM,> 100 µM,–,–,–,–,–,–,–,–,–,–,–
CC(C)=CCC/C(C)=C/CC/C(C)=C/C1CCC(=O)C1(C)C (stereo not given),38 µM,39.7 µM,38.7 µM,41.1 µM,–,30.8 µM,38.9 µM,50.6 µM,30.1 µM,39.4 µM,–,–,–,–,–,–,–,–,–,–
CC1(C)Oc2ccccc2[N+]([O-])=C1c1ccccc1,> 100 µM,–,> 100 µM,> 100 µM,> 100 µM,> 100 µM,> 100 µM,> 100 µM,> 100 µM,> 100 µM,–,–,–,–,–,–,–,–,–,–
O=C(CC1SC(=Nc2ccccc2Cl)NC1=O)Nc1ccc(Cl)cc1 (stereo not given),> 100 µM,> 100 µM,–,> 100 µM,28.4 µM,48.7 µM,> 100 µM,> 100 µM,> 100 µM,> 100 µM,–,–,–,–,–,–,–,–,–,–
Cc1nc(-n2nc(-c3ccccc3)cc2-c2ccccc2)sc1C(=O)/C=C/c1ccc(Cl)cc1,–,> 100 µM,> 100 µM,34 µM,61.1 µM,30.1 µM,27.4 µM,28.7 µM,> 100 µM,> 100 µM,–,–,–,–,–,–,–,–,–,–
CCOC(=O)C(=O)C(/C(=N/N(C)C)C(=O)Nc1ccc(C)cc1C)c1nc2ccccc2[nH]c1=O (stereo not given),> 100 µM,> 100 µM,> 100 µM,> 100 µM,> 100 µM,–,> 100 µM,> 100 µM,> 100 µM,> 100 µM,–,–,–,–,–,–,–,–,–,–
CCN(CC)/[N+]([O-])=N/OCC(C)O (stereo not given),> 100 µM,> 100 µM,> 100 µM,> 100 µM,> 100 µM,–,> 100 µM,> 100 µM,> 100 µM,> 100 µM,–,–,–,–,–,–,–,–,–,–
O=C(Nc1ccc(N2CCNCC2)cn1)c1[nH]ncc1Nc1ncnc2sccc12,–,5.19 µM,4.02 µM,4.75 µM,3.19 µM,3.88 µM,3.39 µM,7.33 µM,5.33 µM,24.6 µM,2.08 µM,1.96 µM,2.02 µM,1.54 µM,1.72 µM,1.69 µM,2.6 µM,2.17 µM,4.27 µM,–
C[C@@]1(O)CCC[C@H]1n1c(=O)c(C(F)F)cc2cnc(NC3CCN(S(C)(=O)=O)CC3)nc21,> 100 µM,> 100 µM,> 100 µM,6.69 µM,6.46 µM,–,3.45 µM,3.31 µM,> 100 µM,43.7 µM,1.21 µM,2.11 µM,1.43 µM,0.0891 µM,–,1.17 µM,1.04 µM,1.37 µM,1.38 µM,1.96 µM
CN(C)C1C(=O)C(C(N)=O)=C(O)C2(O)C(=O)C3=C(O)c4c(O)cccc4C(C)(O)C3CC12 (stereo not given),48.5 µM and > 100 µM,> 100 µM,34.9 µM and > 100 µM,58.5 µM and > 100 µM,46.1 µM and > 100 µM,72.2 µM and > 100 µM,–,> 100 µM,> 100 µM,> 100 µM,–,15.4 µM and > 100 µM,31.4 µM and > 100 µM,23.3 µM and > 100 µM,25.7 µM and > 100 µM,–,31.7 µM and 90.9 µM,39.9 µM and 82.7 µM,–,23.2 µM and > 100 µM
Cc1nc2ccccc2c(/C=C/c2ccccc2)c1C(=O)/C=C/c1ccccc1,> 100 µM,3.52 µM,5.67 µM,–,–,4.44 µM,3.19 µM,3.23 µM,3.62 µM,6.18 µM,1.93 µM,2.11 µM,–,–,1.82 µM,1.76 µM,1.77 µM,1.86 µM,1.84 µM,2.84 µM
Cn1cc2ccccc2c1-c1nc(F)nc(Nc2ccc(N)cc2)n1,> 100 µM,61.9 µM,46.7 µM,29.3 µM,35 µM,–,35.1 µM,–,68 µM,28.5 µM,–,–,–,–,–,–,–,–,–,–
Cc1ccc(-n2c3c(c4c(CN)c(O)ccc42)CCc2ccccc2C3=O)cc1,–,30.4 µM,38 µM,28.5 µM,8.19 µM,47 µM,36.1 µM,27 µM,31.1 µM,22.8 µM,15.8 µM,19.7 µM,14.1 µM,2.48 µM,19.5 µM,16.6 µM,14 µM,16.7 µM,8.18 µM,–
CCOc1ncnc2ccc(Cl)c(I)c12,> 100 µM,> 100 µM,> 100 µM,> 100 µM,> 100 µM,> 100 µM,–,> 100 µM,> 100 µM,> 100 µM,–,–,–,–,–,–,–,–,–,–
C[C@@H]1OC(=O)NN=C1c1ccc(-c2ccc(F)cc2)c(C(F)(F)F)c1,> 100 µM,21.6 µM,31.1 µM,21.2 µM,25.3 µM,28 µM,24.3 µM,–,23.2 µM,29.9 µM,5.02 µM,12.7 µM,7.17 µM,10.2 µM,11.8 µM,11.2 µM,–,11.2 µM,14.2 µM,3.2 µM
CCN(CC)CCOc1ccc(Cc2ccccc2)cc1,–,> 100 µM,> 100 µM,> 100 µM,42.4 µM,31.5 µM,> 100 µM,> 100 µM,> 100 µM,74.6 µM,28.5 µM,60.6 µM,33.4 µM,17.4 µM,16.1 µM,32.1 µM,30.8 µM,47.2 µM,24 µM,–
CN[C@H]1CC[C@]23C[C@]24CC[C@]2(C)[C@@H]([C@H](C)N(C)C)CC[C@@]2(C)[C@@H]4CC[C@H]3C1(C)C,–,60.7 µM,32.9 µM,35.6 µM,32.5 µM,25.2 µM,26.7 µM,32.1 µM,31 µM,35.1 µM,–,–,–,–,–,–,–,–,–,–
CCOC(=O)NC(=O)c1cn(C2OC(COC(=O)CCCCCCCCC(=O)OCC3OC(n4cc(C(=O)NC(=O)OCC)c(=O)[nH]c4=O)C4OC(C)(C)OC34)C3OC(C)(C)OC32)c(=O)[nH]c1=O (stereo not given),> 100 µM,> 100 µM,> 100 µM,> 100 µM,> 100 µM,–,> 100 µM,> 100 µM,> 100 µM,> 100 µM,–,–,–,–,–,–,–,–,–,–
